Here are results for eight compounds from ChEMBL document CHEMBL1201862, “PubChem BioAssay data set” (2004).

Assay in all cases: NCI tumour cell line growth inhibition, 48 h
In test [1] the test system is DU-145.
Test [2] deals with SK-MEL-28.
In test [3] the test system is MOLT-4.
Test [4] deals with M14.
Test [5] concerns HCT-116.
The subject of test [6] is A498.
In test [7] the test system is MCF7.
In test [8] the test system is Malme-3M.
For test [9], the system named is OVCAR-8.
Test [10] relates to CCRF-CEM.
For test [11], the system named is K562.
Test [12] deals with SR.
Test [13] deals with NCI-H460.
Test [14] deals with NCI-H23.
In test [15] the test system is SK-OV-3.
Test [16] has as its system OVCAR-3.
Test [17] concerns COLO 205.
Test [18] deals with LOX IMVI.
For test [19], the system named is SNB-75.

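Dose response: 5 concentrations. Exposure: 48 h. Format: 96-well plates. Endpoint: linear interpolation; highest concentration if not reached. GI50: concentration for 50% inhibition of growth.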 Active and inactive are the calls of the source. Rule as the data show it: active = GI50 up to about 1.1 µM and inactive = higher. A value given as a limit tells only on which side of the number the result lay.

Take `COc1cc(N(C)C)c(OC)cc1C=C1C=CC=C1`: the GI50 in test [1] was > 100 µM (inactive); in test [2], > 100 µM (inactive); in [3] it was 38.6 µM (inactive); in [4], > 100 µM (inactive); in test [5] it was 82.4 µM (inactive); in [6] it was > 100 µM (inactive). Further, the GI50 in test [7] was > 100 µM (inactive); in test [8], > 100 µM (inactive); in test [9], > 100 µM (inactive); in test [10], 54.1 µM (inactive); in [11], 58.5 µM (inactive); in test [12], 61.2 µM (inactive). Moreover, the GI50 in test [13], in [14], in test [15] and in test [16] was > 100 µM (inactive) throughout.

On to `C=CC[C@@]12CCC(=O)C=C1CCCC2=O`, for which the GI50 in test [1], in test [2], in test [3], in [17], in test [4] and in test [5] was > 100 µM (inactive) each time. The GI50 in [6], in [18], in test [7], in test [8], in test [11] and in [12] was > 100 µM (inactive) each time. Further, the GI50 in test [13], in test [14], in test [15] and in test [16] was > 100 µM (inactive) throughout.

For the compound `N#CCN1c2ccccc2CCC1Cl` (configuration not stated), the GI50 in test [1], in [2], in [3], in test [17], in test [4] and in [5] was > 10 µM (inactive) throughout. Moreover, the GI50 in [6], in test [18], in test [7], in test [8], in test [9] and in [10] was > 10 µM (inactive) throughout. The GI50 in [11], in test [12], in test [13], in test [14], in test [15] and in [16] was > 10 µM (inactive) throughout.

Take `CC1(C)OC[C@H](COCOP2(=O)Oc3ccc4ccccc4c3-c3c(ccc4ccccc34)O2)O1`: the GI50 is 17.6 µM (inactive) in test [1]; 13.3 µM (inactive) in [2]; 15 µM (inactive) in test [3]; 16.3 µM (inactive) in test [4]; 15 µM (inactive) in test [5]; 16.9 µM (inactive) in [6]. The GI50 in [7] was 3.48 µM (inactive); in [8], 21.3 µM (inactive); in [9] it was 25.2 µM (inactive); in [10], 27.6 µM (inactive); in test [11], 21.8 µM (inactive); in test [12], 16.7 µM (inactive). Besides, the GI50 was 16.7 µM (inactive) in test [13], 15.6 µM (inactive) in test [14], 23.8 µM (inactive) in test [15] and 15.3 µM (inactive) in test [16].

As to `CCN1CCC(O)(/C=C/c2ccc(OC)cc2)C(C(=O)/C=C/c2ccc(OC)cc2)C1` (configuration not stated), the GI50 in test [1] is 10.9 µM (inactive); in test [2], 12 µM (inactive); in test [3], 2.72 µM (inactive); in test [17] it was 4.2 µM (inactive); in test [4], 15.5 µM (inactive); in test [5], 3.81 µM (inactive). The GI50 in test [6] was 13.3 µM (inactive); in test [18], 2.37 µM (inactive); in [7], 3.08 µM (inactive); in test [8] it was 17.1 µM (inactive); in test [9] it was > 10 µM (inactive); in test [10] it was 1.34 µM (inactive). The GI50 is 2.75 µM (inactive) in test [11]; 3.46 µM (inactive) in [12]; 11.1 µM (inactive) in test [13]; 12.4 µM (inactive) in test [14]; 10.6 µM (inactive) in test [15]; 14.1 µM (inactive) in test [16].

Regarding `Cc1cc(C)nc(NS(=O)(=O)c2ccc(NNC(=O)c3cccc4c(NNc5ccc(S(=O)(=O)Nc6nc(C)cc(C)n6)cc5)c5ccccc5nc34)cc2)n1`, the GI50 in test [1] is 19.4 µM (inactive); in [2], 23.4 µM (inactive); in [3] it was 26 µM (inactive); in [19], 17.7 µM (inactive); in [17] it was 20.9 µM (inactive); in test [4], 17.5 µM (inactive). Also, the GI50 in test [5] was 22.9 µM (inactive); in test [18] it was 17.2 µM (inactive); in test [7], 31.5 µM (inactive); in test [8], 20.7 µM (inactive); in test [9] it was 20.6 µM (inactive); in test [10], 18.5 µM (inactive). Also, the GI50 in test [11] was 22.2 µM (inactive); in test [12] it was 20.5 µM (inactive); in test [13], 20.6 µM (inactive); in [14], 22.8 µM (inactive); in test [15], 25.3 µM (inactive); in test [16], 28.3 µM (inactive).

As for `CC(CCOc1ccc2ccc(=O)oc2c1)C1=CC(=O)C(C)(C)O1` (configuration not stated), the GI50 in test [1] was 2.39 µM (inactive); in test [2] it was 2.9 µM (inactive); in [3], 2.12 µM (inactive); in [17], 2.42 µM (inactive); in [4], 3.92 µM (inactive); in test [5] it was 2.64 µM (inactive). For the same compound, the GI50 in [6] is 1.95 µM (inactive); in test [18], 2.23 µM (inactive); in test [7], 3.61 µM (inactive); in test [8], 3.04 µM (inactive); in test [9] it was 1.96 µM (inactive); in test [10] it was 0.499 µM (active). The GI50 in test [12] was 0.612 µM (active); in test [13] it was 1.86 µM (inactive); in test [14] it was 2.81 µM (inactive); in test [15], 3.53 µM (inactive); in [16], 3.22 µM (inactive).

With `CC1(C)CCC[C@]2(C)[C@@H]1CC[C@@]13O[C@@H]1C1=C(CO)C(=O)O[C@]14O[C@@H]4[C@@H]23`, the GI50 is 14.3 µM (inactive) in [1]; 15.6 µM (inactive) in test [2]; 15.1 µM (inactive) in [3]; 15.2 µM (inactive) in [19]; 17.7 µM (inactive) in test [17]; 10.8 µM (inactive) in test [4]. Besides, the GI50 in test [5] is 12.4 µM (inactive); in test [6] it was 17.3 µM (inactive); in test [18], 10.8 µM (inactive); in test [7], 15.3 µM (inactive); in test [8], 17 µM (inactive); in [9], 12.9 µM (inactive). Further, the GI50 in test [11] is > 41 µM (inactive); in test [12] it was 4.61 µM (inactive); in [13], 14.9 µM (inactive); in test [14], 11.7 µM (inactive); in [15], 16.7 µM (inactive); in test [16], 13.2 µM (inactive).
